Assays:
[1] = tested on: Spodoptera littoralis; test: Tested for its ability to inhibit antennal esterases of Spodoptera littoralis without pre-incubation at 63 uM concentration
[2] = Tested for the ability to inhibit antennal esterases of Spodoptera littoralis with pre-incubation
[3] = Compound was tested for competitive inhibition of antennal esterases of Spodoptera littoralis
[4] = Tested for its ability to inhibit antennal esterases of Spodoptera littoralis without pre-incubation

| SMILES | inhibition [1] [%] | IC50 [2] [µM] | Ki [3] [µM] | IC50 [4] [µM] |
| --- | --- | --- | --- | --- |
| O=C(c1cccc2ccccc12)C(F)(F)F | 38 | – | – | – |
| CCCCCCCCSCC(=O)C(F)(F)F | – | 0.55 | 25.1 | 3.7 |
| CCCCCCCCCCCCCCCCCC(=O)C(F)(F)F | 44 | – | – | – |
| O=C(c1ccc2ccccc2c1)C(F)(F)F | – | 11.4 | 249 | 7.9 |
| O=C(c1ccccc1)C(F)(F)F | 31 | 40.7 | – | – |
| O=C(Cc1ccccc1)C(F)(F)F | 36 | – | – | – |
| O=C(CCc1ccccc1)C(F)(F)F | 43 | – | – | – |
| CCCCCCCCCCCCCCCCC(=O)C(F)(F)F | 50 | – | – | – |

The next lines start with the values.

| inhibition [1] [%] | IC50 [2] [µM] | Ki [3] [µM] | IC50 [4] [µM] | SMILES |
| --- | --- | --- | --- | --- |
| – | 18.4 | – | – | CCCCCCCCCCCCCCC(=O)C(F)(F)F |
| – | 19.3 | – | – | CCCCCCCCCCC(=O)C(F)(F)F |
| – | 4.4 | – | 11 | CCCCCCCCCCCCCC(=O)C(F)(F)F |
| – | 1.16 | 29.8 | 10.6 | CCCCCCCCCCCCC(=O)C(F)(F)F |

Source: ChEMBL document CHEMBL1150435, “Inhibition of antennal esterases of the egyptian armyworm Spodoptera littoralis by trifluoromethyl ketones” (Bioorg Med Chem Lett, 1993)
